Results published in patent publication EP4461294A1, “LIPOLYTIC AND ANTIADIPOGENIC COUMARIN DERIVATIVES” (Karl-Franzens-Universität Graz, priority 2023, dated 2024).

What was measured:
Assay type in all cases: cell-based
AMPK = assay: Western blot, expression and phosphorylation of AMPK, short-term experiments in 3T3-L1 cells; settings: 10 µg/ml, short-term (24 h), compared to controls
Experimental: (§1) 3T3-L1 preadipocytes were cultured in DMEM (D5796, high glucose) supplemented with 10% FBS, penicillin, and streptomycin at 37 °C in 5% CO2 atmosphere and 80% humidity. For long-term experiments, cells were seeded onto 6-well plates and grown to confluence. Adipogenesis was induced 48 h post confluence (day 0) by addition of culture medium containing […], […] dexamethasone, and 500 µM 3-isobutyl-1-methylxan-thine (IBMX). Experiments were performed in the absence and presence of increasing concentrations of ethanolic citrus extracts (total peel, flavedo and albedo layers) or commercially available citropten, bergamottin and 5-geranyloxy-7-methox-ycoumarin. Ethanol (0.1%) served as vehicle. At days 3 and 5, medium was replaced by fresh medium supplemented with 10 pg/ml and 0.2 ug/ml insulin, respectively, with and without compounds. At day 7, adipogenesis was terminated by harvest of cells. In a short-term approach, differentiation was performed for 24 h. […]
(§2) Lysates were denaturated by boiling with 5-fold Laemmli buffer for 10 min at 95 °C. […] After incubation of membranes with respective horseradish peroxidase-conjugated IgGs immunoreactive bands were visualized using Western Bright™ ECL or Western Bright™ Quantum substrates (Biozym, Austria) and chemiluminescence was quantified with the Fusion SL Imaging System (VWR International GmbH).

C/EBPδ [1] = assay: Western blot, protein expression of C/EBPδ in 3T3-L1 cells; settings: 10 pg/ml each
Experimental: as §1, §2

PPARγ = assay: Western blot, protein expression of PPARγ during adipogenesis of 3T3-L1 cells; settings: adipogenesis terminated at day 7, increasing concentrations
Experimental: as §1, §2

[2] = test system: acetyl-CoA carboxylase (ACC); assay: Western blot, expression and phosphorylation of ACC, short-term experiments in 3T3-L1 cells
Experimental: as §1, §2

C/EBPβ [3] = assay: Dual luciferase reporter assay, transcriptional activity of C/EBPβ in HEK293 cells; settings: 24 h; for transcriptional activity of C/EBPβ: 10 µg/ml
Experimental: (§3) At 80-90% confluence, HEK293 cells were co-transfected with C/EBPβ or C/EBPδ DNA (1 µg each) and Cignal Reporter (0,5 µg) in serum- and antibiotic-free medium using TurboFect™ Transfection Reagent (ThermoFisher Scientific). Cells were incubated for 24 h in the absence and presence of citropten, bergamottin or 5-geranyloxy-7-methoxycoumarin. Thereafter, cells were harvested and lysed according to the manufacturer's instructions. Activities of firefly luciferase and Renilla luciferase were sequentially measured as biolumi-nescence using the GloMax Discover System GM3000 (Promega) as described. Luminescence of each sample was normalized to Renilla luciferase activity.

C/EBPβ [4] = assay: Western blot, protein expression of C/EBPβ (isoforms LAP*, LAP, LIP) in 3T3-L1 cells; settings: for protein expression of C/EBPβ (isoforms LAP*, LAP and LIP): 10 µg/ml each
Experimental: 3T3-L1 preadipocytes were cultured in DMEM (D5796, high glucose) supplemented with 10% FBS, penicillin, and streptomycin at 37 °C in 5% CO2 atmosphere and 80% humidity. For long-term experiments, cells were seeded onto 6-well plates and grown to confluence. Adipogenesis was induced 48 h post confluence (day 0) by addition of culture medium containing […], 0.4 pg/ml dexamethasone, and 500 µM 3-isobutyl-1-methylxan-thine (IBMX). Experiments were performed in the absence and presence of increasing concentrations of ethanolic citrus extracts (total peel, flavedo and albedo layers) or commercially available citropten, bergamottin and 5-geranyloxy-7-methox-ycoumarin. Ethanol (0.1%) served as vehicle. At days 3 and 5, medium was replaced by fresh medium supplemented with 10 pg/ml and 0.2 ug/ml insulin, respectively, with and without compounds. At day 7, adipogenesis was terminated by harvest of cells. In a short-term approach, differentiation was performed for 24 h. Cells were harvested by treatment with RIPA buffer (#R0278, Sigma) containing EDTA (2 mM) and cOmplete Protease Inhibitor Cocktail (total volume of 150 µl per well) and scraped off mechanically. Cell suspensions were transferred to Eppendorf vials, homogenized by repeated sonication, and kept on ice for 10 min. Aliquots were stored at 4 °C for measurement of triglycerides (TGs) and total cellular protein content. For Western blot experiments homogenates were stored at -80 °C.
Lysates were denaturated by boiling with 5-fold Laemmli buffer for 10 min at 95 °C. Samples containing 15 µg of protein were separated by SDS-PAGE on 8-12% gels for 45 min at 180 V. Thereafter, proteins were transferred onto nitrocellulose membranes for 90 min (240 mA). After blocking with Tris-buffered saline containing 0.1% (v/v) Tween-20 and 5% non-fat dry milk for 1 h (ambient temperature) membranes were incubated overnight at 4 °C with primary antibodies. After incubation of membranes with respective horseradish peroxidase-conjugated IgGs immunoreactive bands were visualized using Western Bright™ ECL or Western Bright™ Quantum substrates (Biozym, Austria) and chemiluminescence was quantified with the Fusion SL Imaging System (VWR International GmbH).

C/EBPδ [5] = assay: Dual luciferase reporter assay, transcriptional activity of C/EBPδ in HEK293 cells; settings: 10 µg/ml, 24 h
Experimental: as §3, with “Transcriptional activities of C/EBPβ and C/EBP6 were measured using the C/EBP Cignal™ Reporter Assay (CCS-001L; dual luc) from Qiagen (Germany) and the Dual-Luciferase® Reporter Assay System (E1910; Promega Corporation, Germany) as recently described (Mussbacher et al., 2019, Sci Rep, 9(1), 15403. https://doi.org/10.1038/s41598-019-51579-x). pcDNA-mC/EBPβ (Addgene plasmid # 49198) and pcDNA-mC/EBP6 (Addgene plasmid #12559) were gifts from Jed Friedman and Peter Johnson, respectively. At” for “At”

C/EBPα = assay: Western blot, protein expression of C/EBPα during adipogenesis of 3T3-L1 cells; settings: adipogenesis terminated at day 7, increasing concentrations
Experimental: as §1, §2

mature 3T3-L1 cells [6] = assay: Forskolin-stimulated lipolysis, release of free fatty acids into the medium; settings: for forskolin-induced lipolysis: 3 h
Experimental: (§4) 3T3-L1 preadipocytes were seeded onto 6-well plates and cultured in DMEM (D5796; high glucose) supplemented with 10% fetal bovine serum, penicillin, and streptomycin at 37 °C in 5% CO2 atmosphere and 80% humidity. Differentiation of cells were performed for 10 days as described in 2.4. Mature adipocytes were washed twice in low glucose containing DMEM (D4947). Lipolysis was induced by addition of the adenylyl cyclase activator forskolin (10 µM) and cells were incubated in medium containing 2% fatty acid-free BSA for up to 6 h in the absence and presence of coumarins. In basal lipolysis experiments, forskolin was excluded. Aliquots of the medium were collected and release of free fatty acids (FFAs) was measured using the NEFA Assay Kit from FUJIFILM Wako Chemicals Europe GmbH (Neuss, Germany) (ASC-ACOD method) according to the manufacturer's instructions.

mature 3T3-L1 cells [7] = assay: Basal lipolysis, release of free fatty acids into the medium (forskolin excluded); parameters: dose or concentration left out as unconfirmed; settings: without forskolin, 3 h
Experimental: as §4

SMILES	phosphorylation of AMPK at Thr172 (AMPK)	protein expression of C/EBP6 (C/EBPδ [1])	protein expression of PPARγ (PPARγ)	transcriptional activity of C/EBPβ (C/EBPβ [3])	protein expression of C/EBPβ (isoforms LAP*, LAP and LIP) (C/EBPβ [4])	transcriptional activity of C/EBP6 (C/EBPδ-dependent transcriptional activity) (C/EBPδ [5])	protein expression of C/EBPα (C/EBPα)	forskolin-induced lipolysis (mature 3T3-L1 cells [6]; 56 µM (10 µg/ml))	also measured
COc1cc(OC/C=C(\C)CCC=C(C)C)c2ccc(=O)oc2c1 [5-geranyloxy-7-methoxycoumarin, 5-[(2E)-3,7-dimethylocta-2,6-dienoxy]-7-methoxychromen-2-one]	more than doubled	not affected	concentration-dependently suppressed	not affected	not affected	tendency to decrease	concentration-dependently suppressed		fold induction at 10 µg/mL ([2]; Mus musculus, 3T3-L1, short-term (24 h), compared to controls, read-out: phosphorylation of acetyl-CoA carboxylase (ACC) at Ser79): ~3; transcriptional activity of C/EBP6 (C/EBPδ-dependent transcriptional activity) (C/EBPδ [5]; listed as 5-geranyloxy-7-methoxy-coumarin): not affected
CC(C)=CCC/C(C)=C/COc1c2ccoc2cc2oc(=O)ccc12 [bergamottin, 4-[(2E)-3,7-dimethylocta-2,6-dienoxy]furo[3,2-g]chromen-7-one]	significantly increased	not affected	concentration-dependently suppressed	not affected	not affected	not affected	concentration-dependently suppressed		phosphorylation of ACC (Ser79) ([2]; 10 µg/ml, short-term experiments, p<0.05 vs vehicle-treated cells): significantly increased; forskolin-induced lipolysis (mature 3T3-L1 cells [6]; 30 µM (10 µg/ml)): did not significantly enhance
COc1cc(OC)c2ccc(=O)oc2c1 [citropten, 5,7-dimethoxy-2H-chromen-2-one]									activity of C/EBPβ (C/EBPβ [3]; citropten 25 µg/ml): increased; expression of LIP (C/EBPβ [4]; 25 µg/ml, p<0.05 vs vehicle-treated cells): significantly upregulated; protein expression of C/EBPβ (C/EBPβ [4]; citropten 25 µg/ml): increased; basal release of FFAs (mature 3T3-L1 cells [7]): increased; forskolin-induced lipolysis (mature 3T3-L1 cells [6]; 10 pg/ml (≈ 48 µM)): significant effect; activity at 120 µM (mature 3T3-L1 cells [6]; Mus musculus, 3T3-L1, 25 µg/ml (≈ 120 µM), 3-4 h after induction of lipolysis, read-out: effect on forskolin-stimulated lipolysis (release of FFAs), maximal): 185 to 190%; forskolin-stimulated lipolysis (mature 3T3-L1 cells [6]; forskolin 10 µM, time- and concentration-dependent manner): enhanced; release of FFAs (mature 3T3-L1 cells [6]; forskolin-stimulated, 25 µg/ml (≈ 120 µM), within 0.5 and 6 h): significantly increased
O=c1ccc2cc(O)c(O)cc2o1 [esculetin, 6,7-dihydroxy-2H-chromen-2-one]								did not significantly enhance	
COc1ccc2ccc(=O)oc2c1 [herniarin, 7-methoxy-2H-chromen-2-one]									forskolin-induced lipolysis (mature 3T3-L1 cells [6]; 141 µM (25 µg/ml)): did not significantly enhance
COc1cc2oc(=O)ccc2cc1O [isoscopoletin, 6-hydroxy-7-methoxy-2H-chromen-2-one]								did not significantly enhance	
